# Source: patent publication US6609014B1, “Use of PDT to inhibit intimal hyperplasia” (QLT Inc., priority 1999, dated 2003)
# Where “and” joins values, the source holds several entries; their conditions need not be identical. Equal values may be shown once.
# Key:
# [1] = system: intimal hyperplasia in the vein of AV fistulae between the carotid artery and internal jugular vein; assay: One-month dose optimization: PDT of bilateral end-to-side AV fistulae, morphometric analysis of vein cross-sections; format: in vivo, Domestic swine; set-up: key to PDT-treated fistula thrombosed (T) / PDT-treated fistula thrombosed: T = thrombosed; settings: for Percent Lumen Compromised by Intimal Hyperplasia, PDT, Block #1 / Percent Lumen Compromised by Intimal Hyperplasia, PDT, Block #2 / Percent Lumen Compromised by Intimal Hyperplasia, Control-PDT, Block #1, Mean / Percent Lumen Compromised by Intimal Hyperplasia, Control-PDT, Block #2, Mean / Percent Lumen Compromised by Intimal Hyperplasia, PDT, Block #2, Mean / Percent Lumen Compromised by Intimal Hyperplasia, PDT, Block #1, Mean / PDT-treated fistula thrombosed (T) / Percent Lumen Compromised by Intimal Hyperplasia, Control-PDT, Block #1 / Percent Lumen Compromised by Intimal Hyperplasia, Control-PDT, Block #2: 40 min OR lamp light
# Description: Domestic swine (male, 40-50 kg) were used for experiments related to the present invention. Extensive research has been performed to characterize the changes leading to intimal hyperplasia (IH) in the arteries and veins of swine, which closely resemble those in humans (22). AV fistulae were created in several pigs to confirm that measurable IH developed in the vein, just distal to the anastomoses, within one month (FIG. 1A).
# Pigs were recovered and left for four weeks at which time they were exsanguinated and perfused with 10% formalin. The fistulae were surgically excised for processing and wax embedding for histology (FIGS. 1A and 2). Wax blocks containing the fistulae were cut to provide sections containing a cross-section of the anastomoses, including the artery and vein distal to the sutures (FIGS. 1A, 1B, and 3).
# A porous balloon catheter was introduced into the lumen of veins to deliver either 2 mL of BPD-MA (diluted in 5% dextrose in water) or 5% dextrose in water (control), at a delivery pressure of 2 mm Hg. Two minutes later, the photosensitizer (or dextrose) was rinsed out with heparinized saline before light exposure.
# The adventitia of the vein was exposed to the operating room (OR) lamp light for 40 minutes (a combination of incandescent bulbs and fluorescence tubes—approximately 1 J/cm^2).
# Measurements and observations were made by morphometric analysis of cross-sections of fistulae stained with Verhoeff's elastic to assess the integrity of the vessel wall and also clearly demarcate the internal elastic lamina (IEL) for the measurement of IH. Areas within the lumen and those circumscribed by the internal elastic lamina (IEL) and the external elastic lamina (EEL) were measured directly using the Optimas (Optimas Corporation, Bothell, Wash., USA) program. The areas of the intima and the media were calculated by subtraction: intimal area equals the […], and medial area equals EEL area minus IEL area.
# Statistical analysis was conducted using the two tailed t-Test (two-sample assuming unequal variances) for comparisons between groups of PDT-treated and control fistulae and paired t-tests for paired comparisons of PDT-treated and control fistulae.
# End-to-side AV fistulae between the carotid artery and internal jugular vein were treated at four different BPD-MA doses (0.015, 0.15, 0.5 & 1.5 mg/2 mL) and exposed to 40 minutes of operating room (OR) lamp and ambient light to determine the optimal doses required to inhibit IH while causing minimal damage to the vein wall. Bilateral AV fistulae were created. For example, one side was treated with saline and 40 min. OR lamp light, while the other side was treated with BPD-MA (0.015 mg/2 mL or the other doses) and 40 min. OR lamp light after creating the anastomoses. At least six pigs were treated using each BPD-MA dose and the 40 minutes OR lamp light delivery system.
# Optimization of PS and radiation dose was performed. Bilateral end-to-side AV fistula between the carotid artery and jugular vein were created in 29 pigs. Animals were sacrificed 4 weeks after PDT, and the fistulae were surgically excised and processed for histology. Computer-assisted measurement of the lumen area and,the area delimited by the internal elastic lamina (IEL) and external elastic lamina (EEL) was performed on 5 sections of the vein. The IH was calculated by subtracting the lumen area from the […]. Medial hyperplasia was calculated by subtracting the IEL area from the EEL area.
# For each fistula, the percent of the lumen compromised by the intima hyperplasia (%LCIH=IEL−Lumen/IEL) was calculated for the first two complete blocks from the tip of the anastomosis, since IH is most often observed clinically within 1 cm of the anastomosis. Differences in the % LCIH between control and treated sides were averaged for each dose group. Results are presented in Tables 1 a and 1b as well as illustrated in FIGS. 2 and 3.
# [2] = system: endothelial lining of the vein lumen; assay: von Willebrand factor immunostaining of AV fistula veins 48 hours after PDT; format: in vivo, Domestic swine; settings: low-dose PDT
# Description: In Example 4, the cell content of the vein wall was also examined using immunohistochemical techniques to detect SMCs (mouse anti-human ax-smooth muscle actin, clone 1A4 (Dako, Mississauga, Canada)), macrophages (mouse monoclonal anti-human monocyte/macrophage, clone MAC 387 (Serotec Inc.), T cells (Rabbit anti-human CD3 with Neo marker), and endothelial cells (rabbit polyclonal anti-human von Willebrand Factor (Dako, Mississauga, Canada)). SMCs were counted using the Optimas image analysis program and macrophages were counted manually using Image Pro Plus 3 (Media Cybernetics, Silver Spring, Md., USA).
# For the purposes of determining the early cellular effects of PDT on the vein, bilateral AV fistulae were created in six pigs and treated sides were given 0.15 mg BPD-MA (0.15 mg/2 mL) and 40 minutes OR light. After 48 hours these pigs were sacrificed and the fistulae were recovered and processed for histological evaluation. This is not enough time for IH to have developed, but the cellular activation which leads to IH may be detectable. […] Immunocytochemistry for the proliferating cell nuclear antigen (PCNA) was used to assess cell proliferation in the tissue (Table 3).
# Immunocytochemical staining for von Willebrand factor was performed to characterize the effects of PDT on the endothelial lining of the vein lumen. […]
# [3] = 0.015 mg BPD-MA/2 mL into vein lumen, one month, individual pigs
# [4] = 0.015 mg BPD-MA/2 mL, one month, group mean
# [5] = 0.015 mg BPD-MA/2 mL, one month, individual pigs
# [6] = 0.15 mg BPD-MA, OR lamp, one month, group mean
# [7] = 0.15 mg BPD-MA, OR lamp, one month, individual pigs
# [8] = 0.15 mg BPD-MA/2 mL into vein lumen, one month, individual pigs
# [9] = 0.15 mg BPD-MA/2 mL, one month, group mean
# [10] = 0.15 mg BPD-MA/2 mL, one month, individual pigs
# [11] = 0.15 mg BPD-MA, one month, relative to control mean
# [12] = 0.15 mg BPD-MA, one month, treated vs control fistulae
# [13] = 0.5 mg BPD-MA/2 mL into vein lumen, one month, individual pigs
# [14] = 0.5 mg BPD-MA/2 mL, one month, group mean
# [15] = 0.5 mg BPD-MA/2 mL, one month, individual pigs
# [16] = 1.5 mg BPD-MA/2 mL into vein lumen, one month, individual pigs
# [17] = 1.5 mg BPD-MA/2 mL, one month, group mean
# [18] = 1.5 mg BPD-MA/2 mL, one month, individual pigs
substance,measurement,setting,value
benzoporphyrin derivative monoacid ring A [BPD-MA],"Percent Lumen Compromised by Intimal Hyperplasia, PDT, Block #1",[1]; [3],3.1% and 21.3% and 9% and 30.3% and 3.4% and 2.2%
same,"Percent Lumen Compromised by Intimal Hyperplasia, PDT, Block #2",[1]; [3],2.4% and 2.3% and 5% and 13% and 8.6% and 1.8%
same,"Percent Lumen Compromised by Intimal Hyperplasia, Control-PDT, Block #1, Mean",[1]; [4],1.5%
same,"Percent Lumen Compromised by Intimal Hyperplasia, Control-PDT, Block #2, Mean",[1]; [4],2.9%
same,"Percent Lumen Compromised by Intimal Hyperplasia, PDT, Block #2, Mean","[1]; 0.015 mg BPD-MA/2 mL, one month, group mean, p = 0.36 vs control",5.5%
same,"Percent Lumen Compromised by Intimal Hyperplasia, PDT, Block #1, Mean","[1]; 0.015 mg BPD-MA/2 mL, one month, group mean, p = 0.39 vs control",11.6%
same,PDT-treated fistula thrombosed (T),[1]; [5],T
same,"Percent Lumen Compromised by Intimal Hyperplasia, Control-PDT, Block #1",[1]; [5],−0.2% and 10.2% and −4% and −27.2% and 24.9% and 5.3%
same,"Percent Lumen Compromised by Intimal Hyperplasia, Control-PDT, Block #2",[1]; [5],−0.2% and 27.1% and −2% and −6.5% and −1.9% and 0.9%
same,Change in amount of IH between control and treated veins,"[1]; 0.015 mg BPD-MA, one month",little change
same,"Percent Medial Hyperplasia, PDT, Block #1, Mean",[1]; [6],10.0%
same,"Percent Medial Hyperplasia, PDT, Block #2, Mean",[1]; [6],11.5%
same,PDT-treated fistula thrombosed,[1]; [7],T
same,"Percent Medial Hyperplasia, PDT, Block #1",[1]; [7],5.9% and 15.3% and 6.2% and 12.5% and 9.8%
same,"Percent Medial Hyperplasia, PDT, Block #2",[1]; [7],10.3% and 5.7% and 18.2% and 9.8% and 13.7%
same,"Percent Lumen Compromised by Intimal Hyperplasia, PDT, Block #1",[1]; [8],7.1% and 19.3% and 4.6% and 9.2% and 6.9% and 21.1%
same,"Percent Lumen Compromised by Intimal Hyperplasia, PDT, Block #2",[1]; [8],7% and 9.1% and 6.7% and 2.5% and 3.6% and 8.6%
same,"Percent Lumen Compromised by Intimal Hyperplasia, Control-PDT, Block #1, Mean",[1]; [9],7.0%
same,"Percent Lumen Compromised by Intimal Hyperplasia, Control-PDT, Block #2, Mean",[1]; [9],9.25%
same,"Percent Lumen Compromised by Intimal Hyperplasia, PDT, Block #2, Mean","[1]; 0.15 mg BPD-MA/2 mL, one month, group mean, p = 0.06 vs control",6.3%
same,"Percent Lumen Compromised by Intimal Hyperplasia, PDT, Block #1, Mean","[1]; 0.15 mg BPD-MA/2 mL, one month, group mean, p = 0.095 vs control",11.4%
same,PDT-treated fistula thrombosed (T),[1]; [10],T
same,"Percent Lumen Compromised by Intimal Hyperplasia, Control-PDT, Block #1",[1]; [10],24.2% and −1.5% and 8.2% and −2.9%
same,"Percent Lumen Compromised by Intimal Hyperplasia, Control-PDT, Block #2",[1]; [10],2.7% and 14.8% and 0.5% and 19%
same,"Relative reduction of intimal hyperplasia (mean PDT-induced decrease), first block",[1]; [11],38%
same,"Relative reduction of intimal hyperplasia (mean PDT-induced decrease), second block",[1]; [11],55%
same,"Reduction in % LCIH, first block",[1]; [12],7.0%
same,"Reduction in % LCIH, second block",[1]; [12],9.3%
same,"Difference in medial thickness between PDT-treated and control samples, block 2","[1]; 0.15 mg/2 mL, one month",little difference
same,"Difference in medial thickness between PDT-treated and control samples, first block","[1]; 0.15 mg/2 mL, one month",44%
same,"Percent Lumen Compromised by Intimal Hyperplasia, PDT, Block #1",[1]; [13],18.1% and 16.6% and 32.0%
same,"Percent Lumen Compromised by Intimal Hyperplasia, PDT, Block #2",[1]; [13],11.2% and 6.8% and 3.4%
same,"Percent Lumen Compromised by Intimal Hyperplasia, Control-PDT, Block #1, Mean",[1]; [14],0.5%
same,"Percent Lumen Compromised by Intimal Hyperplasia, Control-PDT, Block #2, Mean",[1]; [14],0.9%
same,"Percent Lumen Compromised by Intimal Hyperplasia, PDT, Block #1, Mean",[1]; [14],22.2%
same,"Percent Lumen Compromised by Intimal Hyperplasia, PDT, Block #2, Mean",[1]; [14],7.1%
same,PDT-treated fistula thrombosed (T),[1]; [15],T
same,"Percent Lumen Compromised by Intimal Hyperplasia, Control-PDT, Block #1",[1]; [15],−13.0% and 5.1% and 9.4%
same,"Percent Lumen Compromised by Intimal Hyperplasia, Control-PDT, Block #2",[1]; [15],−8.3% and 2.1% and 9.0%
same,Difference in IH between treated and control fistulae,"[1]; 0.5 mg BPD-MA, one month",Little difference
same,"Percent Lumen Compromised by Intimal Hyperplasia, PDT, Block #1",[1]; [16],19.4% and 17.4% and 21.6% and 41.8% and 12.7%
same,"Percent Lumen Compromised by Intimal Hyperplasia, PDT, Block #2",[1]; [16],43.0% and 1.7% and 11.7% and 53.8% and 13.9%
same,"Percent Lumen Compromised by Intimal Hyperplasia, Control-PDT, Block #1, Mean",[1]; [17],−14.9%
same,"Percent Lumen Compromised by Intimal Hyperplasia, Control-PDT, Block #2, Mean",[1]; [17],−23.6%
same,"Percent Lumen Compromised by Intimal Hyperplasia, PDT, Block #1, Mean",[1]; [17],22.6%
same,"Percent Lumen Compromised by Intimal Hyperplasia, PDT, Block #2, Mean",[1]; [17],24.8%
same,PDT-treated fistula thrombosed (T),[1]; [18],T
same,"Percent Lumen Compromised by Intimal Hyperplasia, Control-PDT, Block #1",[1]; [18],−0.7% and −13.7% and −38.9% and −6.2%
same,"Percent Lumen Compromised by Intimal Hyperplasia, Control-PDT, Block #2",[1]; [18],−37.9% and 5.1% and −49.9% and −11.8%
same,Effect on IH,"[1]; 1.5 mg dose BPD-MA, one month",appeared to induce IH
same,"Effect on development of IH, high doses",[1]; PDT with high doses of BPD-MA,either did not modulate the development of IH or actually induced IH
same,"Thrombogenicity of vessel wall, high doses","[1]; PDT with high doses of BPD-MA, one month",appeared to render the vessel wall more thrombogenic
same,"Percent IH in PDT-treated vs control fistulae, responders only","[1]; all animals 0.015 to 1.5 mg/2 ml BPD-MA, excluding those with less than 10% IH in control fistulae, Block 1 p=0.03, Block 2 p=0.02",significantly less
same,"Average one-month thrombosis incidence, PDT-treated fistulae","[1]; all doses (0.015-1.5 mg/2 mL BPD-MA), control fistulae 26.0%",26.6%
same,"Effect on IH at the anastomosis of arteriovenous grafts, low doses","[1]; low doses (0.15 mg/2 ml) locally delivered BPD-MA, ambient light from operating room lamps",resulted in the reduction of IH
same,"Incidence of thrombosis, low-dose PDT","[1]; low-dose PDT, one month",not associated with an increase in the incidence of thrombosis
same,Effect of PDT on medial thickening,[1]; one month,did not affect medial thickening
same,Number of fistulae that thrombosed vs drug dose,"[1]; one month, 0.015-1.5 mg/2 mL",correlated roughly with increasing drug dose
same,Statistical significance of differences in intimal thickening between PDT-treated and control veins,"[1]; one month, marked with some doses (0.15 mg)",not statistically significant
same,Damage to endothelial cell lining of treated veins,[2],did not appear to damage the endothelial cell lining
